One assay deals with T1, TwinStrep-GST-HDAC10 (Homo sapiens, UniProt Q969S8).
T1 sequence (Q969S8 1-669): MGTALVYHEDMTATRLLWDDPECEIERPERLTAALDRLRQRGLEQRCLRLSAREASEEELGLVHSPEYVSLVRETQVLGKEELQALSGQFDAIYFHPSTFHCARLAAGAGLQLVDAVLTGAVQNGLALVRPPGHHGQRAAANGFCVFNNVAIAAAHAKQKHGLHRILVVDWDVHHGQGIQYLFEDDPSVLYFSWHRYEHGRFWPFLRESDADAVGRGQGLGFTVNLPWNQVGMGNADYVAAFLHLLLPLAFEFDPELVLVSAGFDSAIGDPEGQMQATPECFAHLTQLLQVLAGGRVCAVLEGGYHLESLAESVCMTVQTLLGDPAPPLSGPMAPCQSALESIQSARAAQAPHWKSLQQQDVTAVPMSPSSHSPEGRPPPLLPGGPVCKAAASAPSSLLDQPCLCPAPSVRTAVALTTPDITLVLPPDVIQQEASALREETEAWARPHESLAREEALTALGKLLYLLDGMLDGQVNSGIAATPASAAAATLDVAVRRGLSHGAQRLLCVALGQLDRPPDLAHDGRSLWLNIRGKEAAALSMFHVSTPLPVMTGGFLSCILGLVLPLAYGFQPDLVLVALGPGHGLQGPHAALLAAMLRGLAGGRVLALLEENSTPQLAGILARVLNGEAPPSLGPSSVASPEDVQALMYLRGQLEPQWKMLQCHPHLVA
Nature of the assay: HDAC10 TR-FRET assay. In kind it is binding. The settings on record: sheet S2e. Here is the method:
(§1) To validate the inhibition of HDACs by LA and LM and elaborate on the structure-activity relationship (SAR) of enantiomers as well as oxidized versus reduced forms of the molecules, we performed enzyme activity assays for recombinant HDAC1,2,3,6,8 as well as FRET-based binding assay for recombinant HDAC10.
Inhibitors with a D300e Digital Dispenser (Tecan). After drug dosing to the premixed assay reagents in buffer, plates were shaken (800 rpm orbital shaker, 30 s), centrifuged (300g, 1 min), and incubated at RT in the dark for 90 min. TR-FRET was measured with a CLARIOstar (BMG Labtech) plate reader, equipped with TR-FRET filters.
For orientation: Time-resolved FRET reads energy transfer from a long-lived donor to a nearby acceptor.

The target of another assay is HDAC1 (Homo sapiens, UniProt Q13547). Kind of assay: HDAC-Glo assay. The settings on record: 0.5 M TCEP, listed as SAHA. Format: biochemical. The arrangement: purchased BPS Bioscience 50051. Here is the method: as §1
The experiments were performed according to ref. [48]. […] Drug dosing was performed with a D300e Digital Dispenser (Tecan). HDACs (7 ng/mL for HDAC1, 25 ng/mL for HDAC2, 200 ng/mL for HDAC3/Ncor2 complex, 100 ng/mL for HDAC6, 200 ng/mL for HDAC8) and inhibitors were incubated together at room temperature (RT) for 30 min. After the addition of the HDAC-Glo™ I/II reagent, plates were shaken (800 rpm orbital shaker, 30 s), centrifuged (300 g, 1 min), and incubated at RT for 30 min. Luminescence was detected with a CLARIOstar (BMG Labtech) plate reader.

Another assay relates to A549 cells. Kind of assay: Arsenite-induced stress granule formation (G3BP1 immunofluorescence). Format: cell-based. The conditions noted are these: for arsenite-induced stress granule quantification (G3BP1), Mean / arsenite-induced stress granule quantification (G3BP1), Median / arsenite-induced stress granule quantification (G3BP1), individual values: sheet 4b; for arsenite-induced stress granule quantification (G3BP1), individual values: single data points. Here is the method:
The acetylation status of proteins can affect their macromolecular associations and the tendency of proteins to phase-separate into liquid condensates such as stress granules. […] After pre-incubation of cells with the compound, stress granule formation was induced using 30 min of arsenite treatment (1 mM). After treatment, cells were fixed for immunofluorescence detection of stress granules via the common stress granule marker protein G3BP1[21].
0.03 × 10^6 A549 cells were seeded at 4-chamber slides (Thermo, Nunc) and cultured at 37 °C overnight. Cells were treated with HDAC inhibitor SAHA and Lipoic acid or LM for 6 h, followed by 1 mM Arsenite for 30 min. Cells were fixed by 4% PFA and permeabilized by 0.5% Triton X-100/PBS. 10% Goat serum in PBS was used for blocking. After manually selecting an area with cell confluency of 50–80%, 16 pictures were taken randomly around the central point (ZEISS software in-built function). Stress granule marker G3BP1 (Aviva Systems Biology, ARP37713_T100) was visualized and quantified by ImageJ. Statistical analysis was performed with GraphPad Prism.

Where “and” joins values, the source holds several entries; their conditions need not be identical. Identical values can stand only once.

HDAC1, sequence (Q13547 whole entry): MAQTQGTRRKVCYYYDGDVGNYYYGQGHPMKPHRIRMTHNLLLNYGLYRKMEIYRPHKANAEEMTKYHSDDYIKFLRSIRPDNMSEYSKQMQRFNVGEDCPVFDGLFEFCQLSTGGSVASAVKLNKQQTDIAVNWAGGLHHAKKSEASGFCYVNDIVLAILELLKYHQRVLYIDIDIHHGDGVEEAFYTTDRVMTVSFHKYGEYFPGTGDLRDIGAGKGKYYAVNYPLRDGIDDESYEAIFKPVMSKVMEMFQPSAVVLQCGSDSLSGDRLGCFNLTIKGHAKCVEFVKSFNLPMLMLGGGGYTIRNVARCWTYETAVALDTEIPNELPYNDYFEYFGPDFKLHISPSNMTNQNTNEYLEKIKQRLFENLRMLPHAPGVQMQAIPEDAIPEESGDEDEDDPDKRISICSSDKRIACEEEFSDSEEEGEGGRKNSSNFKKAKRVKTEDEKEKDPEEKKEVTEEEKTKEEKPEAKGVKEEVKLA

For the compound `NC(=O)CCCCC1CCSS1` (stereo not shown) [R/S Lipoic Amide], the “HDAC10 TR-FRET relative signal” value on TwinStrep-GST-HDAC10 (log conc -4) is 8.95 and 4.904 and 5.819; at TwinStrep-GST-HDAC10 (log conc -6.32148), 8.47 and 4.461 and 8.704; at TwinStrep-GST-HDAC10 (log conc -7.57349), 45.0477 and 41.2172 and 50.7784; at TwinStrep-GST-HDAC10 (log conc -8.06198), 82.499 and 87.6271 and 84.2057.

As to `O=C(CCCCCCC(=O)Nc1ccccc1)NO` [Vorinostat], the “raw luminescence signal, HDAC1 inhibition” value at HDAC1 (log10 M -4.30103, 3 technical replicates) is 1951 and 1963 and 1822; on HDAC1 (log10 M -5.12407, 3 technical replicates), 3958 and 4231 and 3895; on HDAC1 (log10 M -5.94692, 3 technical replicates), 19908 and 20969 and 19762; on HDAC1 (log10 M -6.76955, 3 technical replicates) it was 88503 and 91916 and 93868; on HDAC1 (log10 M -7.59346, 3 technical replicates), 248915 and 245579 and 256063; on HDAC1 (log10 M -8.41567, 3 technical replicates), 337631 and 344047 and 344507. In addition, the “raw luminescence signal, HDAC1 inhibition” value on HDAC1 (log10 M -9.27327, 3 technical replicates) was 375556 and 372678 and 377396; on HDAC1 (log10 M -10.062, 3 technical replicates), 346292 and 360694 and 357566. Besides, the entries for the “arsenite-induced stress granule quantification (G3BP1), Mean” value in the assay on A549 cells (SAHA 5 uM) and in the assay on A549 cells (SAHA 10 uM) were 45.6514 and 35.2798, respectively. Also, the “arsenite-induced stress granule quantification (G3BP1), Median” value with A549 cells (SAHA 5 uM) worked out at 49.1176; with A549 cells (SAHA 10 uM), 36. Moreover, the “arsenite-induced stress granule quantification (G3BP1), individual values” in the assay with A549 cells (SAHA 5 uM) was 49.2857 and 50.3 and 41.875 and 50.4286 and 49.1176 and 51.2222 and 60.7 and 38.0833 and 56.9 and 30 and 49.3333 and 45.8824 and 50.6667 and 31.4 and 46 and 38.6364 and 52.8182 and 41.7273 and 33; in the assay with A549 cells (SAHA 10 uM) it was 44.5 and 23.5 and 22.5 and 18.5 and 15.6364 and 31 and 37.5882 and 55.1667 and 42.2 and 33.2 and 29.6923 and 41.5 and 52.75 and 25.3333 and 40.5 and 51.1667 and 36 and 30.8333 and 38.75. For the same compound, the “effect on stress granule numbers per cell” value with A549 cells (pre-incubation 6 h, then 1 mM arsenite 30 min) is recorded as “dose-dependent reduction of stress granule numbers per cell”.

On to `O=C(O)CCCCC1CCSS1` (stereo not shown) [R/S Lipoic Acid], for which the “HDAC10 TR-FRET relative signal” value was 16.6621 and 17.5526 and 13.058 on TwinStrep-GST-HDAC10 (log conc -4.58031); 24.6813 and 29.9295 and 28.3509 on TwinStrep-GST-HDAC10 (log conc -5.16059); 52.1664 and 54.0588 and 51.0514 at TwinStrep-GST-HDAC10 (log conc -5.74088); 88.5435 and 84.6455 and 96.7603 at TwinStrep-GST-HDAC10 (log conc -6.32148); 91.5597 and 91.2649 and 101.82 on TwinStrep-GST-HDAC10 (log conc -6.92082); 99.4261 and 99.6664 and 105.18 on TwinStrep-GST-HDAC10 (log conc -7.57349). Also, the “HDAC10 TR-FRET relative signal” value at TwinStrep-GST-HDAC10 (log conc -8.06198) is 106.58 and 110.725 and 95.693.

With `O=C(O)CCCCC(S)CCS` (stereo not shown) [R/S Lipoic Acid Reduced], the “HDAC10 TR-FRET relative signal” value was 12.9805 and 13.6219 and 13.4323 at TwinStrep-GST-HDAC10 (log conc -5.74088); 35.3961 and 30.9531 and 27.2587 at TwinStrep-GST-HDAC10 (log conc -6.32148); 58.0202 and 63.7897 and 66.3493 on TwinStrep-GST-HDAC10 (log conc -6.92082); 84.4678 and 78.5713 and 85.276 at TwinStrep-GST-HDAC10 (log conc -7.57349); 102.777 and 109.857 and 101.86 at TwinStrep-GST-HDAC10 (log conc -8.06198).

(Values after paper PMC10272112 (Nature Communications, 2023).)
